Calls of active or inactive are those of the source. The rule behind the calls is not given here.

Assay [1] concerns the target T1, Ubiquitin carboxyl-terminal hydrolase 2 (Homo sapiens) (UniProt O75604).
T1 sequence (whole entry): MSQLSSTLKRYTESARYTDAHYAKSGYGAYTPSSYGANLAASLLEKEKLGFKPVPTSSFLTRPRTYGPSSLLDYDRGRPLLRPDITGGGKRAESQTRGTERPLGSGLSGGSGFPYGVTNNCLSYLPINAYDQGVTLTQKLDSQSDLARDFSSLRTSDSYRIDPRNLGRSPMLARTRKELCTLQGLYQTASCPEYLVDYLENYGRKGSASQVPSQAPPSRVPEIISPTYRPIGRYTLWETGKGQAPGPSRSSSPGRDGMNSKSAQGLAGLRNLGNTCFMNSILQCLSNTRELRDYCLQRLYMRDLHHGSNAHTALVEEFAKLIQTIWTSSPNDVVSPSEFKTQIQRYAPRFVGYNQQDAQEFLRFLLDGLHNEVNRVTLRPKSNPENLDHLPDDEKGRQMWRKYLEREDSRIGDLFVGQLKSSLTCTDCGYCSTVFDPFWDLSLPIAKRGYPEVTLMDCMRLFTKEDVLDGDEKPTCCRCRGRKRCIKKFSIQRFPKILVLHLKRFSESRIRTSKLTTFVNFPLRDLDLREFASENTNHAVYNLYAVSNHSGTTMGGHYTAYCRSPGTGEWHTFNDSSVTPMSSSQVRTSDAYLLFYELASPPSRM
The assay is described as follows: Inhibition of human USP2 (251 to 605 residues) expressed in Escherichia coli BL21 (DE3) using ubiquitin rhodamine 110 as substrate assessed as remaining enzyme activity at 10 to 50 uM by fluorometric assay. The following applies: dose 10-50 µM.

Assay [2] addresses T2, Ubiquitin carboxyl-terminal hydrolase 21 (Homo sapiens) (UniProt Q9UK80).
T2 sequence (whole entry): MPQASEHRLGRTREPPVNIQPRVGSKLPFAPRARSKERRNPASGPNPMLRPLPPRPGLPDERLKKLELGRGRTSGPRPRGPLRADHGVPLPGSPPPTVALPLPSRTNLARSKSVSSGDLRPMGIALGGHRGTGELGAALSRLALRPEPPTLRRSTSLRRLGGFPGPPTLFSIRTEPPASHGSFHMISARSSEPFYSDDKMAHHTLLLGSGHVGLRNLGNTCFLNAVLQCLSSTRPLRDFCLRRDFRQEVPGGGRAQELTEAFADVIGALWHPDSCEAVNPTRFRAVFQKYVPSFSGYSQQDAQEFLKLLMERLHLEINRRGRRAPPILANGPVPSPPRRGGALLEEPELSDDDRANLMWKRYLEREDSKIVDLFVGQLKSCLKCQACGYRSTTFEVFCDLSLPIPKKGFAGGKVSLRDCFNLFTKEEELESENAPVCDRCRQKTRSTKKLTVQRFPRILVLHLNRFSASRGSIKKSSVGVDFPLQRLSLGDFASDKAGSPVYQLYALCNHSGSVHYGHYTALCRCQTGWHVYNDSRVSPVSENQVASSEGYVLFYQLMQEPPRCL
The assay is described as follows: Inhibition of human USP21 (209 to 563 residues) expressed in Escherichia coli BL21 (DE3) using ubiquitin rhodamine 110 as substrate assessed as remaining enzyme activity at 10 to 50 uM by fluorometric assay. The following applies: dose 10-50 µM.

For a further assay, the target named is Ataxin-3 (Homo sapiens) (UniProt P54252). The assay is described as follows: Inhibition of human Ataxin-3 (1 to 370 residues) expressed in Escherichia coli BL21 (DE3) using ubiquitin rhodamine 110 as substrate assessed as remaining enzyme activity at 10 to 50 uM by fluorometric assay. The following applies: dose 10-50 µM.
Chain of Ataxin-3 (Homo sapiens) (P54252 whole entry, the tested form may be a part): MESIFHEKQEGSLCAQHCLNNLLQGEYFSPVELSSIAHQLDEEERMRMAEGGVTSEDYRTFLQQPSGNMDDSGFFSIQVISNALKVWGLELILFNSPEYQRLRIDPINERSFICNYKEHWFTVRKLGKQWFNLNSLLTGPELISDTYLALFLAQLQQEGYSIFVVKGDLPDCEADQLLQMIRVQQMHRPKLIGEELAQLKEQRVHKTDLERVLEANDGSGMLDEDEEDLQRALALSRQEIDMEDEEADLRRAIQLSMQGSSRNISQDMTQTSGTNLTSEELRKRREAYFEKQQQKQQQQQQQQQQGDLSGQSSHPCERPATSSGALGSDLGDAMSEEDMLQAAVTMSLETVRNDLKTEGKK
Assay [3] has as its target T3, Ubiquitin carboxyl-terminal hydrolase 4 (Homo sapiens) (UniProt Q13107).
T3 sequence (whole entry): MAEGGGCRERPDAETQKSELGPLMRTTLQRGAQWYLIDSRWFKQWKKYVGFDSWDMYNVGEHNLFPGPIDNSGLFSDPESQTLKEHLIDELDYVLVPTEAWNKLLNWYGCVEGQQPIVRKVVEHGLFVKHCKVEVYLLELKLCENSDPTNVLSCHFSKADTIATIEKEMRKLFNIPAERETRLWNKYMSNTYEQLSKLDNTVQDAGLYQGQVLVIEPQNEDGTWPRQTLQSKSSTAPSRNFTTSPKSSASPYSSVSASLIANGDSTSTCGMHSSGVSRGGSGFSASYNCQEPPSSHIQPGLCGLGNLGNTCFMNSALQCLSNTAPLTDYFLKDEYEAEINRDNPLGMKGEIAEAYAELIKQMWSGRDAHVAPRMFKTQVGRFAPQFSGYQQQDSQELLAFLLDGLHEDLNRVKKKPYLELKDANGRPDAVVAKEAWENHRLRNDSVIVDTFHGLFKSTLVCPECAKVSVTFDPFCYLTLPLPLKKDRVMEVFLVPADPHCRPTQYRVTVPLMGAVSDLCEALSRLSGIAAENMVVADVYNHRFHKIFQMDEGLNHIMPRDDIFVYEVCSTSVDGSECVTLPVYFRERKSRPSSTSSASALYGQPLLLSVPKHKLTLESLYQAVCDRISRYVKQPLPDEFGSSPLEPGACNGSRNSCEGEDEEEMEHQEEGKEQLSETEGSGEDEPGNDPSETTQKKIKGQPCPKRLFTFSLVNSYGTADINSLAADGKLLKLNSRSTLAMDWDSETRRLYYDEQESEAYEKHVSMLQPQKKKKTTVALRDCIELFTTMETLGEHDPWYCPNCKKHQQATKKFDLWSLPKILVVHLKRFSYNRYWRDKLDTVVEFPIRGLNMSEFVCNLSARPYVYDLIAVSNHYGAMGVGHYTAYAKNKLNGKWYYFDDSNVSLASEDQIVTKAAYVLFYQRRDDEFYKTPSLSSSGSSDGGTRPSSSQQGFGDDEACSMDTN
Briefly: Inhibition of human USP4 (1 to 932 residues) expressed in Sf9 cells using ubiquitin rhodamine 110 as substrate assessed as remaining enzyme activity at 10 to 50 uM by fluorometric assay. The following applies: dose 10-50 µM.

The target of assay [4] is T1, Ubiquitin carboxyl-terminal hydrolase 2 (Homo sapiens). The assay is described as follows: Inhibition of human USP2 using ubiquitin rhodamine 110 as substrate at 10 to 50 uM by fluorometric assay. The following applies: dose 10-50 µM.
For a further assay, the system named is A549. Briefly: Antiproliferative activity against human A549 cells assessed as reduction in cell viability up to 30 uM incubated for 72 hrs by CellTiter-Glo luminescent assay. It counts as functional, cell-based. (ATP-based viability assays read luminescence as a measure of living cells.)
The test system of another assay is MOLM-13. Briefly: Antiproliferative activity against human MOLM-13 cells assessed as reduction in cell viability up to 30 uM incubated for 72 hrs by CellTiter-Glo luminescent assay. It counts as functional, cell-based.

Consider `CC(NC(=O)C1CCCC1)C(=O)Nc1nnc(Cc2ccc([N+](=O)[O-])cc2)s1` (racemic), for which the Activity (in assay [1]; in assay [2]; at Ataxin-3 (Homo sapiens); in assay [3]) was less than 50% throughout.

As for `CC(C)C[C@H](NC(=O)C1(C(F)(F)F)CCCCC1)C(=O)Nc1nnc(Cc2ccc(C#N)cc2)s1`, in assay [4], the inhibition result is “inactive”. Moreover, the outcome in the assay with A549 and with MOLM-13 was inactive.
